Columns and labels:
[1] = tested on: human mammary cancer-derived KPL-4 cells; test: Cell growth inhibition test with KPL-4 cells (WST-1); type: cell-based; conditions: KPL4, 72 hours, read-out: 50% growth inhibition concentration (GI50)
Procedure, shortened: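 KPL-4 cells pre-incubated 24 h in 10% FCS DMEM, then exposed to serially diluted compound for 72 h at 37 °C, 5% CO2. WST-1 added for 1 h; A450 minus A655 read. GI50 relative to untreated cells.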

[2] = tested on: human chronic myelocytic leukemia-derived K562 cells; test: Cell growth inhibition test with K562 cells (WST-1); type: cell-based; conditions: 72 hours, read-out: 50% growth inhibition concentration (GI50)
Procedure, shortened: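 K562 cells at 1500 cells/well in 10% FCS RPMI 1640, pre-incubated 5 h, then exposed to serially diluted compound for 72 h at 37° C, 5% CO2. Viability read by WST-1 after 2 h (absorbance 450/655 nm); GI50 reported.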

[3] = tested on: human multiple myeloma-derived KMS-11 cells; test: Cell growth inhibition test with KMS-11 cells (WST-1); type: cell-based; conditions: 72 hours, read-out: 50% growth inhibition concentration (GI50)
Experimental: In a 96-well plate (Nunc), human multiple myeloma-derived KMS-11 cells were sown in an amount of 4000 cells/well, and pre-incubated in 10% FCS-containing RPMI 1640 (Nissui) (incubation medium) in a 5% carbon dioxide incubator at 37° C. for 24 hours. Next, a DMSO solution of a test compound controlled at 10 mmol/L was stepwise diluted with the incubation medium, and added to each well in a total amount of 100 μL/well, and further incubated in the 5% carbon dioxide incubator at 37° C. for 72 hours. After the incubation, WST-1-labeled mixture (Rosh Diagnostic) diluted 2-fold with the incubation medium was added thereto in an amount of 20 μL/well, and incubated in the 5% carbon dioxide incubator at 37° C. for 2 hours. Using a microplate spectrophotometer (Biorad's Model 550), the absorbance at 450 nm and 655 nm of each well was measured. The cell growth inhibition activity of the test compound was indicated by the 50% growth inhibition concentration (GI50) thereof, like in Test Example 2.

[4] = tested on: FGFR3 (fibroblast growth factor receptor 3); test: Deletion of protein encoded by immunoglobulin gene-translocated partner gene in KMS-11 cells (Western blotting); type: cell-based, human; conditions: 10 μmol/L and 1.0 μmol/L, 24 hours, FIG. 1
Experimental: (§1) Human multiple myeloma-derived KMS-11 cells [In Vitro Cell. Dev. Biol., 25, 723 (1989)], which had been diluted with a 10% fetal calf serum-containing RPMI 1640 (incubation medium) to 100,000 cellImL, were put in a 6-well plastic plate for cell incubation (Nunc), in an amount of 3 mL/well. It is reported that the KMS-11 cells express a large quantity of FGFR3 (fibroblast growth factor receptor 3) as a result of translocation between the immunoglobulin gene in 14q32 and the FGFR3 gene in 4p16.3 [Blood 90, 4062 (1997)]. […]
(§2) To the thus-collected cells, added was a cooled cytolysis buffer (50 mmol/L HEPES NaOH, pH 7.4, 250 mmol/L sodium chloride, 1 mmol/L ethylenediamine-tetraacetic acid, 1% Nonidet P-40, 1 mmol/L dithiothreitol, 1 mmol/L phenylmethylsulfonyl fluoride, 5 μg/mL leupeptin), and kept at 4° C. for 30 minutes for cytolysis. […] The protein concentration in the resulting supernatant was measured, and samples were prepared so as to have the same protein amount for each lane, and these were subjected to SDS (sodium dodecylsulfate)-polyacrylamide gel electrophoresis for protein separation.
(§3) Thus separated, the protein sample was transferred onto a polyvinylidene difluoride membrane (Millipore). […] After further reaction with an ECL reagent (Amersham Biosciences), the protein bands were detected on an X-ray film. […]

Erk2 = test: Western blotting of non-Hsp90 client protein in KMS-11 cells; type: cell-based, human; conditions: 10 μmol/L and 1.0 μmol/L, 24 hours, FIG. 1
Experimental: as §1, §2, §3

SMILES | GI50 [1] [µM] | GI50 [2] [µM] | GI50 [3] [µM] | deletion of FGFR3 encoded by the immunoglobulin gene-translocated partner gene [4] | protein amount of Erk2 (non-Hsp90 client protein) (Erk2)
CCc1c(O)cc(O)c(-c2ccccc2)c1CCc1ocnc1C(=O)O [Compound 209, 5-[2-(2-Ethyl-3,5-dihydroxy-6-phenylphenyl)ethyl]-1,3-oxazole-4-carboxylic acid] |  | ≤ 50 | ≤ 50 | deletion of FGFR3 | no change
CCc1c(O)cc(O)c(-c2ccccc2)c1CC1O[C@H](CO)[C@@H](CO)O1 [Compound 218, 5-{[(4R,5R)-4,5-bis(hydroxymethyl)-1,3-dioxolan-2-yl]methyl}-6-ethyl-4-phenylbenzene-1,3-diol] |  | ≤ 50 | ≤ 50 | deletion of FGFR3 | no change
COC(=O)Cc1c(Br)c(O)cc(O)c1-c1ccco1 [Compound 238, Methyl 2-bromo-6-(furan-2-yl)-3,5-dihydroxyphenylacetate] | ≤ 50 | ≤ 50 | ≤ 50 |  | 
COC(=O)Cc1c(Br)c(O)cc(O)c1-c1ccc(CCC(C)=O)o1 [Compound 265, Methyl 2-bromo-3,5-dihydroxy-6-[5-(3-oxobutyl)furan-2-yl]phenylacetate] | ≤ 50 | ≤ 50 | ≤ 50 |  | 

Further lines, with some results ahead:

GI50 [1] [µM] | GI50 [2] [µM] | GI50 [3] [µM] | SMILES | deletion of FGFR3 encoded by the immunoglobulin gene-translocated partner gene [4] | protein amount of Erk2 (non-Hsp90 client protein) (Erk2)
≤ 50 | ≤ 50 | ≤ 50 | CCc1c(O)cc(O)c(-c2cccc(O)c2)c1CCOCCOC [Compound 166, 6-Ethyl-4-(3-hydroxyphenyl)-5-[2-(2-methoxyethoxy)ethyl]benzene-1,3-diol] |  | 
≤ 50 | ≤ 50 | ≤ 50 | CCc1c(O)cc(O)c(-c2cccc(O)c2)c1CCOCCO [Compound 174, 6-Ethyl-5-[2-(2-hydroxyethoxy)ethyl]-4-(3-hydroxyphenyl)benzene-1,3-diol] |  | 

From patent US7538241B2, “Hsp90 family protein inhibitors” (Kyowa Hakko Kogyo Co., Ltd., priority 2003, dated 2009)
